US20020137929A1, “1 - (3-heterocyclylphenyl) isothiourea, -isourea, -guanidine and -amidine herbicidal agents” (Intellectual Property Department, BASF Aktiengesellschaft, priority 1998, published 2002)

What was measured:
ABUTH (Velvetleaf) = experiment: Postemergence herbicidal evaluation; assay type: in vivo, Abutilon theophrasti
Method in brief: (§1)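 Rate range approx. 0.0156–0.500 kg/ha. Foliar application at 40 psi to ~2-week seedlings; surfactant 0.5% TWEEN 20 in 50/50 acetone/water. Evaluation 4–5 wk post-treatment by 0–9 visual injury score, means of replicate tests.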

AMBEL (Ragweed, Common) [1] = experiment: Postemergence herbicidal evaluation; assay type: in vivo, Ambrosia artemisifolia
Method in brief: as §1

[2] = tested on: CHEAL (Lambsquarters, Common); experiment: Postemergence herbicidal evaluation; assay type: in vivo, Chenopodium album
Method in brief: as §1

ECHCG (Barnyardgrass) = experiment: Postemergence herbicidal evaluation; assay type: in vivo, Echinochloa crus-galli
Method in brief: as §1

[3] = tested on: GLXMAW (Soybean, Williams); experiment: Postemergence herbicidal evaluation; assay type: in vivo, Glycine max, (L.) Merr. cv Williams
Method in brief: as §1

ORYSAT (Rice, Tebonnet) = experiment: Postemergence herbicidal evaluation; assay type: in vivo, Oryza sativa, (L.) Tebonnet
Method in brief: as §1

ZEAMX (Corn, Field) = experiment: Postemergence herbicidal evaluation; assay type: in vivo, Zea mays
Method in brief: as §1

AMBEL (Ragweed, Common) [4] = experiment: Preemergence herbicidal evaluation; assay type: in vivo, Ambrosia artemisifolia; settings: rated 4-5 weeks after treatment
Method in brief: (§2)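 Seeds were mixed with potting soil and planted on about one inch of soil, then sprayed with test compound in aqueous acetone at about 0.0156 to 0.500 kg per hectare. Plants grew under standard greenhouse care and were visually rated 0-9 against untreated controls 4-5 weeks post-treatment.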

CASOB (Sicklepod) = experiment: Preemergence herbicidal evaluation; assay type: in vivo, Cassia obtusifolia; settings: rated 4-5 weeks after treatment
Method in brief: as §2

[5] = tested on: CHEAL (Lambsquarters, Common); experiment: Preemergence herbicidal evaluation; assay type: in vivo, Chenopodium album; settings: rated 4-5 weeks after treatment
Method in brief: as §2

GALAP (Galium) = experiment: Preemergence herbicidal evaluation; assay type: in vivo, Galium aparine; settings: rated 4-5 weeks after treatment
Method in brief: as §2

CYPSE (Flatsedge) [6] = experiment: Preemergence weed control under flooded paddy conditions; assay type: in vivo, Cyperus serotinus; settings: rated 3-4 weeks after treatment
Method in brief: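 Using flooded silt loam (water 1.5 to 3 cm deep), seeds sown in the top 0.5 cm were exposed preemergence to compound pipetted into the flood at about 0.0313 to 0.500 kg/ha. Effects were scored 0-9 by eye three to four weeks later.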

CYPIR (Rice Flatsedge) = experiment: Postemergence weed control under flooded paddy conditions; assay type: in vivo, Cyperus iria; settings: postemergence weeds, 3-4 weeks after treatment
Method in brief: (§3)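 Containers holding 3–5 cm weeds and rice at 1.5–2.5 leaves are flooded to 1.5–3 cm above soil. Compound in 50/50 v/v aqueous/acetone is then added directly to the water, about 0.0313–0.500 kg/ha. Plants are kept in the greenhouse and rated 0–9 visually at 3–4 weeks.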

CYPSE (Flatsedge) [7] = experiment: as above; assay type: in vivo, Cyperus serotinus; settings: postemergence weeds, 3-4 weeks after treatment
Method in brief: as §3

## Cn1c(C(F)(F)F)cc(=O)n(-c2cc(N=C3SCC(=O)N3CCC(=O)O)c(Cl)cc2F)c1=O [Compound 31, 2-{{2-Chloro-5-[3,6-dihydro-3-methyl-2,6-dioxo-4-(trifluoromethyl)-1(2H)-pyrimidinyl]-4-fluoro-phenyl}imino}-4-oxo-3-thiazolidinepropionic acid]
ABUTH (Velvetleaf); Rate 0.0158 kg/ha
  Postemergence herbicidal rating ABUTH: 9.0
ABUTH (Velvetleaf); Rate 0.0315 kg/ha
  Postemergence herbicidal rating ABUTH: 9.0
ABUTH (Velvetleaf); Rate 0.0630 kg/ha
  Postemergence herbicidal rating ABUTH: 9.0
AMBEL (Ragweed, Common) [1]; Rate 0.0158 kg/ha
  Postemergence herbicidal rating AMBEL: 0.0
AMBEL (Ragweed, Common) [1]; Rate 0.0315 kg/ha
  Postemergence herbicidal rating AMBEL: 2.0
AMBEL (Ragweed, Common) [1]; Rate 0.0630 kg/ha
  Postemergence herbicidal rating AMBEL: 7.0
[2]; Rate 0.0158 kg/ha
  Postemergence herbicidal rating CHEAL: 0.0
[2]; Rate 0.0315 kg/ha
  Postemergence herbicidal rating CHEAL: 2.0
[2]; Rate 0.0630 kg/ha
  Postemergence herbicidal rating CHEAL: 7.0
ECHCG (Barnyardgrass); Rate 0.0158 kg/ha
  Postemergence herbicidal rating ECHCG: 0.0
ECHCG (Barnyardgrass); Rate 0.0315 kg/ha
  Postemergence herbicidal rating ECHCG: 0.0
ECHCG (Barnyardgrass); Rate 0.0630 kg/ha
  Postemergence herbicidal rating ECHCG: 5.0
[3]; Rate 0.0158 kg/ha
  Postemergence herbicidal rating GLXMAW: 6.5
[3]; Rate 0.0315 kg/ha
  Postemergence herbicidal rating GLXMAW: 6.5
[3]; Rate 0.0630 kg/ha
  Postemergence herbicidal rating GLXMAW: 7.0
ORYSAT (Rice, Tebonnet); Rate 0.0158 kg/ha
  Postemergence herbicidal rating ORYSAT: 3.5
ORYSAT (Rice, Tebonnet); Rate 0.0315 kg/ha
  Postemergence herbicidal rating ORYSAT: 4.0
ORYSAT (Rice, Tebonnet); Rate 0.0630 kg/ha
  Postemergence herbicidal rating ORYSAT: 5.5
ZEAMX (Corn, Field); Rate 0.0158 kg/ha
  Postemergence herbicidal rating ZEAMX: 7.0
ZEAMX (Corn, Field); Rate 0.0315 kg/ha
  Postemergence herbicidal rating ZEAMX: 7.5
ZEAMX (Corn, Field); Rate 0.0630 kg/ha
  Postemergence herbicidal rating ZEAMX: 8.0
AMBEL (Ragweed, Common) [4]; rate 0.0625 kg/ha
  Preemergence herbicidal rating AMBEL: 0.0
AMBEL (Ragweed, Common) [4]; rate 0.1250 kg/ha
  Preemergence herbicidal rating AMBEL: 4.0
AMBEL (Ragweed, Common) [4]; rate 0.2500 kg/ha
  Preemergence herbicidal rating AMBEL: 9.0
CASOB (Sicklepod); rate 0.0625 kg/ha
  Preemergence herbicidal rating CASOB: 0.0
CASOB (Sicklepod); rate 0.1250 kg/ha
  Preemergence herbicidal rating CASOB: 2.0
CASOB (Sicklepod); rate 0.2500 kg/ha
  Preemergence herbicidal rating CASOB: 1.0
[5]; rate 0.0625 kg/ha
  Preemergence herbicidal rating CHEAL: 0.0
[5]; rate 0.1250 kg/ha
  Preemergence herbicidal rating CHEAL: 9.0
[5]; rate 0.2500 kg/ha
  Preemergence herbicidal rating CHEAL: 9.0
GALAP (Galium); rate 0.0625 kg/ha
  Preemergence herbicidal rating GALAP: 0.0
GALAP (Galium); rate 0.2500 kg/ha
  Preemergence herbicidal rating GALAP: 6.0
CYPSE (Flatsedge) [6]; 0.0625 kg/ha
  Herbicidal rating CYPSE: 0.0
CYPSE (Flatsedge) [6]; 0.1250 kg/ha
  Herbicidal rating CYPSE: 0.0
CYPSE (Flatsedge) [6]; 0.2500 kg/ha
  Herbicidal rating CYPSE: 0.0
CYPIR (Rice Flatsedge); rate 0.0625 kg/ha
  Herbicidal rating CYPIR: 0.0
CYPIR (Rice Flatsedge); rate 0.1250 kg/ha
  Herbicidal rating CYPIR: 0.0
CYPIR (Rice Flatsedge); rate 0.2500 kg/ha
  Herbicidal rating CYPIR: 2.5
CYPSE (Flatsedge) [7]; rate 0.0625 kg/ha
  Herbicidal rating CYPSE: 0.0
CYPSE (Flatsedge) [7]; rate 0.1250 kg/ha
  Herbicidal rating CYPSE: 0.0
CYPSE (Flatsedge) [7]; rate 0.2500 kg/ha
  Herbicidal rating CYPSE: 0.0

## Cn1c(C(F)(F)F)cc(=O)n(-c2cc(N=C3SCC(=O)N3CC(=O)NS(C)(=O)=O)c(Cl)cc2F)c1=O [Compound 38, 2-{{2-Chloro-5-[3,6-dihydro-3-methyl-2,6-dioxo-4-(trifluoromethyl)-1(2H)-pyrimidinyl]-4-fluoro-phenyl}imino}-N-(methylsulfonyl)-4-oxo-3-thiazolidineacetamide]
ABUTH (Velvetleaf); Rate 0.0156 kg/ha
  Postemergence herbicidal rating ABUTH: 9.0
ABUTH (Velvetleaf); Rate 0.0313 kg/ha
  Postemergence herbicidal rating ABUTH: 9.0
ABUTH (Velvetleaf); Rate 0.0625 kg/ha
  Postemergence herbicidal rating ABUTH: 9.0
ABUTH (Velvetleaf); Rate 0.1250 kg/ha
  Postemergence herbicidal rating ABUTH: 9.0
ABUTH (Velvetleaf); Rate 0.2500 kg/ha
  Postemergence herbicidal rating ABUTH: 9.0
AMBEL (Ragweed, Common) [1]; Rate 0.0156 kg/ha
  Postemergence herbicidal rating AMBEL: 3.0
AMBEL (Ragweed, Common) [1]; Rate 0.0313 kg/ha
  Postemergence herbicidal rating AMBEL: 5.0
AMBEL (Ragweed, Common) [1]; Rate 0.0625 kg/ha
  Postemergence herbicidal rating AMBEL: 5.0
AMBEL (Ragweed, Common) [1]; Rate 0.1250 kg/ha
  Postemergence herbicidal rating AMBEL: 9.0
AMBEL (Ragweed, Common) [1]; Rate 0.2500 kg/ha
  Postemergence herbicidal rating AMBEL: 9.0
[2]; Rate 0.0156 kg/ha
  Postemergence herbicidal rating CHEAL: 1.0
[2]; Rate 0.0313 kg/ha
  Postemergence herbicidal rating CHEAL: 3.0
[2]; Rate 0.0625 kg/ha
  Postemergence herbicidal rating CHEAL: 4.0
[2]; Rate 0.1250 kg/ha
  Postemergence herbicidal rating CHEAL: 6.0
[2]; Rate 0.2500 kg/ha
  Postemergence herbicidal rating CHEAL: 9.0
ECHCG (Barnyardgrass); Rate 0.0156 kg/ha
  Postemergence herbicidal rating ECHCG: 0.0
ECHCG (Barnyardgrass); Rate 0.0313 kg/ha
  Postemergence herbicidal rating ECHCG: 2.0
ECHCG (Barnyardgrass); Rate 0.0625 kg/ha
  Postemergence herbicidal rating ECHCG: 2.0
ECHCG (Barnyardgrass); Rate 0.1250 kg/ha
  Postemergence herbicidal rating ECHCG: 5.0
ECHCG (Barnyardgrass); Rate 0.2500 kg/ha
  Postemergence herbicidal rating ECHCG: 9.0
[3]; Rate 0.0156 kg/ha
  Postemergence herbicidal rating GLXMAW: 6.5
[3]; Rate 0.0313 kg/ha
  Postemergence herbicidal rating GLXMAW: 6.5
[3]; Rate 0.0625 kg/ha
  Postemergence herbicidal rating GLXMAW: 8.0
[3]; Rate 0.1250 kg/ha
  Postemergence herbicidal rating GLXMAW: 8.5
[3]; Rate 0.2500 kg/ha
  Postemergence herbicidal rating GLXMAW: 8.5
ORYSAT (Rice, Tebonnet); Rate 0.0156 kg/ha
  Postemergence herbicidal rating ORYSAT: 0.5
ORYSAT (Rice, Tebonnet); Rate 0.0313 kg/ha
  Postemergence herbicidal rating ORYSAT: 0.5
ORYSAT (Rice, Tebonnet); Rate 0.0625 kg/ha
  Postemergence herbicidal rating ORYSAT: 2.5
ORYSAT (Rice, Tebonnet); Rate 0.1250 kg/ha
  Postemergence herbicidal rating ORYSAT: 6.0
ORYSAT (Rice, Tebonnet); Rate 0.2500 kg/ha
  Postemergence herbicidal rating ORYSAT: 7.5
ZEAMX (Corn, Field); Rate 0.0156 kg/ha
  Postemergence herbicidal rating ZEAMX: 7.5
ZEAMX (Corn, Field); Rate 0.0313 kg/ha
  Postemergence herbicidal rating ZEAMX: 7.5
ZEAMX (Corn, Field); Rate 0.0625 kg/ha
  Postemergence herbicidal rating ZEAMX: 7.5
ZEAMX (Corn, Field); Rate 0.1250 kg/ha
  Postemergence herbicidal rating ZEAMX: 7.5
ZEAMX (Corn, Field); Rate 0.2500 kg/ha
  Postemergence herbicidal rating ZEAMX: 7.5
AMBEL (Ragweed, Common) [4]; rate 0.0313 kg/ha
  Preemergence herbicidal rating AMBEL: 0.0
AMBEL (Ragweed, Common) [4]; rate 0.0625 kg/ha
  Preemergence herbicidal rating AMBEL: 0.0
AMBEL (Ragweed, Common) [4]; rate 0.1250 kg/ha
  Preemergence herbicidal rating AMBEL: 0.0
AMBEL (Ragweed, Common) [4]; rate 0.2500 kg/ha
  Preemergence herbicidal rating AMBEL: 5.0
CASOB (Sicklepod); rate 0.0313 kg/ha
  Preemergence herbicidal rating CASOB: 0.0
CASOB (Sicklepod); rate 0.0625 kg/ha
  Preemergence herbicidal rating CASOB: 0.0
CASOB (Sicklepod); rate 0.1250 kg/ha
  Preemergence herbicidal rating CASOB: 0.0
CASOB (Sicklepod); rate 0.2500 kg/ha
  Preemergence herbicidal rating CASOB: 3.0
[5]; rate 0.0313 kg/ha
  Preemergence herbicidal rating CHEAL: 9.0
[5]; rate 0.0625 kg/ha
  Preemergence herbicidal rating CHEAL: 9.0
[5]; rate 0.1250 kg/ha
  Preemergence herbicidal rating CHEAL: 9.0
[5]; rate 0.2500 kg/ha
  Preemergence herbicidal rating CHEAL: 9.0
GALAP (Galium); rate 0.0313 kg/ha
  Preemergence herbicidal rating GALAP: 0.0
GALAP (Galium); rate 0.0625 kg/ha
  Preemergence herbicidal rating GALAP: 5.0
GALAP (Galium); rate 0.1250 kg/ha
  Preemergence herbicidal rating GALAP: 8.0
GALAP (Galium); rate 0.2500 kg/ha
  Preemergence herbicidal rating GALAP: 9.0
CYPSE (Flatsedge) [6]; 0.0313 kg/ha
  Herbicidal rating CYPSE: 0.0
CYPSE (Flatsedge) [6]; 0.0625 kg/ha
  Herbicidal rating CYPSE: 0.0
CYPSE (Flatsedge) [6]; 0.1250 kg/ha
  Herbicidal rating CYPSE: 0.0
CYPSE (Flatsedge) [6]; 0.2500 kg/ha
  Herbicidal rating CYPSE: 3.0
CYPIR (Rice Flatsedge); rate 0.0313 kg/ha
  Herbicidal rating CYPIR: 3.0
CYPIR (Rice Flatsedge); rate 0.0625 kg/ha
  Herbicidal rating CYPIR: 3.0
CYPIR (Rice Flatsedge); rate 0.1250 kg/ha
  Herbicidal rating CYPIR: 5.0
CYPIR (Rice Flatsedge); rate 0.2500 kg/ha
  Herbicidal rating CYPIR: 5.0
CYPSE (Flatsedge) [7]; rate 0.0313 kg/ha
  Herbicidal rating CYPSE: 0.0
CYPSE (Flatsedge) [7]; rate 0.0625 kg/ha
  Herbicidal rating CYPSE: 0.0
CYPSE (Flatsedge) [7]; rate 0.1250 kg/ha
  Herbicidal rating CYPSE: 0.0
CYPSE (Flatsedge) [7]; rate 0.2500 kg/ha
  Herbicidal rating CYPSE: 3.0
